The IC50 is the midpoint of a concentration-inhibition curve. As usually defined, the GI50 is the concentration at which growth is held to half of that of the control. Broadly, the inhibition is the change of the read-out against control, counted positive when it falls.

This note sets out measurements from ChEMBL document CHEMBL5136977, “Discovery of 1-(5-(1H-benzo[d]imidazole-2-yl)-2,4-dimethyl-1H-pyrrol-3-yl)ethan-1-one derivatives as novel and potent bromodomain and extra-terminal (BET) inhibitors with anticancer efficacy” (Eur J Med Chem, 2022).

Series [1] concerns the target T1, Bromodomain-containing protein 4 (Homo sapiens, UniProt O60885). Kind of series: Inhibition of Alexa647 labelled MS417 binding to his tagged BRD4 BD1 (unknown origin) by TR-FRET assay. Background: Time-resolved FRET reads energy transfer from a long-lived donor to a nearby acceptor.
For a further series, the system named is UACC-62. Kind of series: Antiproliferative activity against human UACC-62 cells assessed as cell growth inhibition measured after 72 hrs by CellTiter-Glo assay. In kind it is functional. Background: Cellular ATP, detected with luciferase, serves as a proxy for viable cell number.
In series [2] the test system is MV4-11. Kind of series: Antitumor activity against human MV4-11 cells xenografted BALB/c nude mouse model assessed as tumor growth inhibition at 20 mg/kg, po QD administered for 28 consecutive days. The note with it: MV4-11, 672 h, time 28 day, read-out: TGI. The class given is functional.
In another series the test system is MDA-MB-468. Kind of series: Antiproliferative activity against human MDA-MB-468 cells assessed as cell growth inhibition measured after 72 hrs by CellTiter-Glo assay. In kind it is functional.
Another series concerns CAKI-1. Kind of series: Antiproliferative activity against human CAKI-1 cells assessed as cell growth inhibition measured after 72 hrs by CellTiter-Glo assay. The class given is functional.
Another series deals with NCI-H522. Kind of series: Antiproliferative activity against human NCI-H522 cells assessed as cell growth inhibition measured after 72 hrs by CellTiter-Glo assay. The class given is functional.
Another series concerns SNB-75. Kind of series: Antiproliferative activity against human SNB-75 cells assessed as cell growth inhibition measured after 72 hrs by CellTiter-Glo assay. In kind it is functional.
In a further series the test system is HCT-15. Kind of series: Antiproliferative activity against human HCT-15 cells assessed as cell growth inhibition measured after 72 hrs by CellTiter-Glo assay. In kind it is functional.
The subject of the next series is HL-60(TB). Kind of series: Antiproliferative activity against human HL-60(TB) cells assessed as cell growth inhibition measured after 72 hrs by CellTiter-Glo assay. The class given is functional.
Series [3] has as its system MV4-11. Kind of series: Antiproliferative activity against human MV4-11 cells assessed as cell growth inhibition at 1 uM incubated for 72 hrs by CellTiter-Glo assay relative to control. In kind it is functional.
Series [4] has as its system MV4-11. Kind of series: Antiproliferative activity against human MV4-11 cells assessed as cell growth inhibition incubated for 72 hrs by CellTiter-Glo assay. In kind it is functional, cell-based. The note with it: MV4-11, 72 h.
Series [5] has as its target T1, Bromodomain-containing protein 4. Kind of series: Inhibition of recombinant his tagged BRD4 BD1 (unknown origin) at 2 uM by Alpha screen assay relative to control. Background: Alpha assays give light when donor and acceptor beads are brought close together.
Series [6] can be described thus: Metabolic stability in dog liver microsomes assessed as elimination half life incubated for 1 hr by LC-MS/MS analysis. The class given is ADME, Canis lupus familiaris, Microsome. The note with it: read-out: beta t1/2.
Series [7] in a line: Metabolic stability in dog liver microsomes assessed as intrinsic clearance incubated for 1 hr by LC-MS/MS analysis. In kind it is ADME, Canis lupus familiaris, Microsome. The note with it: read-out: CLH.
A short description of series [8]: Metabolic stability in monkey liver microsomes assessed as intrinsic clearance incubated for 1 hr by LC-MS/MS analysis. The note with it: rhesus monkey, read-out: CLH. The class given is ADME, Macaca mulatta, Microsome.
A short description of series [9]: Metabolic stability in human liver assessed as intrinsic clearance incubated for 1 hr by LC-MS/MS analysis. In kind it is ADME, tissue-based. The settings on record: read-out: CLH.
The nature of series [10]: Metabolic stability in human liver microsomes assessed as elimination half life incubated for 1 hr by LC-MS/MS analysis. The settings on record: read-out: beta t1/2. The class given is ADME, Microsome.
Series [11] in a line: Metabolic stability in monkey liver microsomes assessed as elimination half life incubated for 1 hr by LC-MS/MS analysis. In kind it is ADME, Macaca mulatta, Microsome. The note with it: rhesus monkey, read-out: beta t1/2.
A short description of series [12]: Metabolic stability in rat liver assessed as intrinsic clearance incubated for 1 hr by LC-MS/MS analysis. The class given is ADME, tissue-based. The note with it: read-out: CLH.
Series [13] in a line: Metabolic stability in human liver microsomes assessed as intrinsic clearance incubated for 1 hr by LC-MS/MS analysis. The settings on record: read-out: CLH. In kind it is ADME, Microsome.
Series [14] is described as follows: Metabolic stability in monkey liver assessed as intrinsic clearance incubated for 1 hr by LC-MS/MS analysis. In kind it is ADME, tissue-based, Macaca mulatta. The note with it: rhesus monkey, read-out: CLH.
A short description of series [15]: Metabolic stability in dog liver assessed as intrinsic clearance incubated for 1 hr by LC-MS/MS analysis. In kind it is ADME, tissue-based, Canis lupus familiaris. The settings on record: read-out: CLH.
Series [16] can be described thus: Metabolic stability in rat liver microsomes assessed as intrinsic clearance incubated for 1 hr by LC-MS/MS analysis. The class given is ADME, Microsome. The note with it: read-out: CLH.
Series [17] can be described thus: Metabolic stability in rat liver microsomes assessed as elimination half life incubated for 1 hr by LC-MS/MS analysis. The class given is ADME, Microsome. The note with it: read-out: beta t1/2.

On to `CCS(=O)(=O)Nc1ccc(Oc2ccc(F)cc2F)c(-c2cn(C)c(=O)c3[nH]ccc23)c1` [MIVEBRESIB], for which the IC50 in series [1] is 11 nM.

With `Cc1sc2c(c1C)C(c1ccc(Cl)cc1)=N[C@@H](CC(=O)Nc1ccc(O)cc1)c1nnc(C)n1-2` [BIRABRESIB], the GI50 in the series on UACC-62 stood at 162 nM; in the series with MDA-MB-468, 212 nM; in the series on CAKI-1, 94.6 nM; with NCI-H522 it was 262 nM; in the series on SNB-75, 29.6 nM; in the series with HCT-15, 179 nM. In the series on HL-60(TB), the GI50 turned out to be 179 nM. Moreover, in the series on MV4-11 [2], the inhibition in vivo at 20 mg/kg amounted to 63.5%.

As to `CC(=O)c1c(C)[nH]c(-c2nc3cc(N4CCN(C)CC4)ccc3[nH]2)c1-c1cnn(C)c1`, in the series on MV4-11 [3], the inhibition at 1 µM amounted to 53%.

On to `CCS(=O)(=O)N1CCN(c2ccc3[nH]c(-c4[nH]c(C)c(C(C)=O)c4C)nc3c2)CC1`, for which the IC50 in the series on MV4-11 [4] came to 1640 nM.

`Cc1sc2c(c1C)C(c1ccc(Cl)cc1)=N[C@@H](CC(=O)OC(C)(C)C)c1nnc(C)n1-2`: the concentration for half-maximal inhibition (IC50) in the series on MV4-11 [4] stood at 157 nM.

Turning to `CC(=O)c1c(C)[nH]c(-c2nc3cc(N4CCN(C)CC4)ccc3[nH]2)c1-c1ccc2ccccc2c1`, the IC50 with MV4-11 [4] turned out to be 556 nM.

With `CC(=O)c1c(C)[nH]c(-c2nc3cc(N4CCN(C)CC4)ccc3[nH]2)c1-c1cccc(Cl)c1`, the IC50 in the series with MV4-11 [4] amounted to 321 nM.

Turning to `COc1cccc(-c2c(-c3nc4cc(N5CCN(C)CC5)ccc4[nH]3)[nH]c(C)c2C(C)=O)c1`, in the series with MV4-11 [4], the IC50 was 284 nM.

On to `CSc1ccc(-c2c(-c3nc4cc(N5CCN(C)CC5)ccc4[nH]3)[nH]c(C)c2C(C)=O)cc1`, for which, in the series with MV4-11 [4], the IC50 came to 187 nM.

Take `CCN(CC)c1ccc2[nH]c(-c3[nH]c(C)c(C(C)=O)c3C)nc2c1`: in the series with MV4-11 [3], the inhibition at 1 µM came to 19.7%.

For `COc1ccccc1-c1c(-c2nc3cc(N4CCN(C)CC4)ccc3[nH]2)[nH]c(C)c1C(C)=O`, in the series on MV4-11 [3], the inhibition at 1 µM stood at 25.3%.

Consider `CC(=O)c1c(C)[nH]c(-c2nc3cc(N4CCOCC4)ccc3[nH]2)c1C`, for which the inhibition at 1 µM in the series on MV4-11 [3] worked out at 21.2%.

With `CC(=O)c1c(C)[nH]c(-c2nc3cc(N4CCN(C)CC4)ccc3[nH]2)c1-c1ccc2c(c1)OCO2`, in the series with MV4-11 [4], the IC50 is 161 nM.

Consider `CCc1c(-c2nc3cc(N4CCN(C)CC4)ccc3[nH]2)[nH]c(C)c1C(C)=O`, for which, in the series with MV4-11 [4], the IC50 was 617 nM.

Turning to `CC(=O)c1c(C)[nH]c(-c2nc3cc(N4CCN(C)CC4)ccc3[nH]2)c1-c1ccc2c(c1)OCCO2`, the IC50 with MV4-11 [4] was 157 nM.

Take `COc1ccc(-c2c(-c3nc4cc(N5CCN(C)CC5)ccc4[nH]3)[nH]c(C)c2C(C)=O)cc1F`: in the series with MV4-11 [4], the IC50 came out at 219 nM.

For `CC(=O)c1c(C)[nH]c(-c2nc3c([nH]2)=CCC(Nc2ccnc(Cl)n2)C=3)c1C` (stereo not drawn), in series [5], the inhibition amounted to 91.1%.

For `CC(=O)c1c(C)[nH]c(-c2cnc3ccccc3c2)c1C`, the inhibition in series [5] is 85.5%.

In the case of `COc1ccc(-c2c(-c3nc4cc(N5CCN(C)CC5)ccc4[nH]3)[nH]c(C)c2C(C)=O)cc1`, in the series on MV4-11 [4], the IC50 turned out to be 223 nM.

For the molecule `CC(=O)c1c(C)[nH]c(-c2nc3cc(N4CCCCC4)ccc3[nH]2)c1C`, the IC50 with MV4-11 [4] amounted to 1810 nM.

Turning to `CC(=O)c1c(C)[nH]c(-c2nc3cc(N4CCN(C)CC4)ccc3[nH]2)c1-c1ccc(Cl)cc1`, the IC50 in the series on MV4-11 [4] came out at 291 nM.

Consider `CCOc1ccc(-c2c(-c3nc4cc(N5CCN(C)CC5)ccc4[nH]3)[nH]c(C)c2C(C)=O)cc1`, for which, in the series on MV4-11 [4], the IC50 stood at 192 nM.

As to `CC(=O)c1c(C)[nH]c(-c2nc3cc(N4CCN(C)CC4)ccc3[nH]2)c1-c1ccc(C)cc1`, the IC50 with MV4-11 [4] was determined as 176 nM.

Regarding `CC(=O)c1c(C)[nH]c(-c2nc3cc(N4CCN(C)CC4)ccc3[nH]2)c1C1CCCCC1`, the inhibition in series [5] worked out at 79%.

Consider `COc1ccc(-c2c(-c3nc4cc(N5CCN(C)CC5)ccc4[nH]3)[nH]c(C)c2C(C)=O)cc1OC`, for which the IC50 in the series with MV4-11 [4] is 426 nM.

Regarding `CC(=O)c1c(C)[nH]c(-c2nc3cc(N4CCN(C)CC4)ccc3[nH]2)c1-c1ccccc1Cl`, the IC50 in the series on MV4-11 [4] came to 438 nM.

`CC(=O)c1c(C)[nH]c(-c2nc3cc(N4CCOCC4)ccc3[nH]2)c1-c1ccccc1`: the half-life in series [6] was 44.6 min; in series [10], 61.4 min; in [11], 31.6 min; in [17], 20.4 min. In the series on MV4-11 [4], the IC50 was 318 nM. The microsomal CLint was found to be 31.1 µL/min/mg in series [7], 43.8 µL/min/mg in series [8], 22.6 µL/min/mg in series [13] and 68 µL/min/mg in series [16]. For the same molecule, the CLint scaled in [9] stood at 21.4 mL/min/kg; in [12], 122 mL/min/kg; in series [14], 63.1 mL/min/kg; in series [15], 44.8 mL/min/kg.

As to `CC(=O)c1c(C)[nH]c(-c2nc3cc(N4CCN(C)CC4)ccc3[nH]2)c1C`, the IC50 in the series on MV4-11 [4] came to 699 nM.

Take `CC(=O)c1c(C)[nH]c(-c2nc3ccccc3s2)c1C`: the inhibition in [5] was determined as 73.6%.

As for `CC(=O)c1c(C)[nH]c(-c2nc3cc(N4CCN(C)CC4)ccc3[nH]2)c1C(C)C`, the inhibition in series [5] worked out at 98.9%.

On to `CC(=O)c1c(C)[nH]c(-c2ccc3c4ccccc4n(C)c3c2)c1C`, for which, in [5], the inhibition is 84%.

`CC(=O)c1c(C)[nH]c(-c2nc3cc(N4CCN(C)CC4)ccc3[nH]2)c1-c1ccc(N(C)C)cc1`: in the series with MV4-11 [4], the IC50 turned out to be 192 nM.

Take `CC(=O)c1c(C)[nH]c(-c2nc3cc(N4CCC(CO)CC4)ccc3[nH]2)c1C`: the IC50 with MV4-11 [4] was determined as 1560 nM.

On to `CC(=O)c1c(C)[nH]c(-c2ccc3cc[nH]c3c2)c1C`, for which the inhibition in series [5] was 79.5%.
